Results on one compound are retold here after patent publication US5962516A, “Immunosuppressive compounds and methods” (priority 1999, dated 1999).

Counter-ions that a name gives are not always drawn.

Assay [1] has as its system mixed lymphocyte reaction (spleen cells from female C57BL/6 mice, stimulated with Balb/C spleen cells). Put plainly: Mixed lymphocyte reaction (MLR) assay. The following applies: 50% suppression of proliferation. The format is cell-based, mouse. How it is done: Inhibition of cell proliferation by the subject compounds was assayed in the mixed lymphocyte reaction (MLR) (Bradley, 1980; Mishell, 1980). Spleen cells from female C57BL/6 mice, the "responder" cells, were prepared and co-cultured alone or in the presence of varying concentrations of the test compounds, with irradiated spleen cells prepared from female Balb/C mice, the "stimulator" cells. Prior irradiation of the stimulator cells rendered them unable to proliferate. A sample of the responder cells was also irradiated for use as a control. The non-irradiated responder cells proliferate in the presence of the allogenic stimulator cells. After a 78-hour incubation, tritiated thymidine was added to the mixed cell cultures, and incorporation of the labeled nucleotide into DNA was measured as an index of cell proliferation.
In this study, the responder cells (R) were spleen cells from female C57BL16 mice, and the stimulator cells (S) were spleen cells from female Balb/C mice 6 to 8 weeks of age (Jackson, Bar Harbor, Me.). The spleens were aseptically removed from the mice and placed into 10 ml of cold HBSS in a sterile petri dish. The spleen was cut in half and gently pressed between the frosted ends of 2 sterile microslides. The cell suspension was then filtered through sterile nylon mesh (Nytex, Tetco #HD-3-85) into a 15 ml conical polypropylene centrifuge tube and centrifuged at 200×g for 10 minutes in a Beckman GPR tabletop centrifuge (GH-3.7 Rotor). Following an additional wash in HBSS, the spleen cells were resuspended in RPMI 1640 medium (Gibco) containing 50 uM 2-mercaptoethanol, 2 mM glutamine, 100 U/ml penicillin, 100 μg/ml streptomycin and 10% heat-inactivated fetal bovine serum.
The stimulator cells (S) and part of the responder cells (R) were diluted at 10×10^6 cells/ml and irradiated at 20 cGy with a Cesium Irradiator (Department of Radiation Oncology, Stanford University, California) to inhibit proliferation. The irradiated cells were washed once to remove any toxic free radicals and their products resulting from irradiation. The responder cells (R), irradiated stimulator cells (Sx) and irradiated responder cell (Rx) were all diluted to 4×10^6 cells/ml.
In the assay, 4×10^5 cells of R were cocultured with 4×10^5 cells of Sx in 200 μl of medium in round bottom 96 well tissue culture plates. Fifty micro-liters of test samples at various concentrations were added to the cells. The wells receiving no test samples would get the maximum proliferation. Several controls were used in the assay. The irradiated responder cells (Rx) were also added to the responder cells with and without the test samples. Rx or Sx alone were checked to make sure no proliferation occurred after irradiation. The spontaneous proliferation of R was also measured.
The culture plates were incubated at 37° C. in a 5% CO2 incubator for four days. The cells were labelled with 1 μCi of (^3 H)-thymidine (Amersham, 49 Ci/mmol) in 20 μl of medium for the last 18 hours. Cells were then harvested and counted. The results were reported as counts per minute (cpm) per well. Percent of suppression and IC50 (concentration of sample producing 50% suppression of proliferation) were used to indicate the suppressive activity of the sample. Sample cpm was calculated as (R+Sx+sample)cpm-(R+Rx+sample)cpm; control cpm was calculated as (R+Sx)cpm-(R+Rx)cpm. Percent suppression of MLR activity was calculated as (1-sample cpm/control cpm)×100. IC50 was determined from percent suppression to indicate the suppressive activity of the sample.

Assay [2] deals with IL-1β action on murine thymocytes. Put plainly: Inhibition of IL-1 action (IL-1 assay): suppression of IL-1β + PHA stimulated murine thymocyte proliferation. The format is cell-based, mouse (C3H/HeN). The note with it: 50% suppression of proliferation, 72 h culture. How it is done: The ability of the above compounds to suppress the cell-proliferative effect of IL-1β in vitro (O'Gara, 1990) was examined as described in Example 11. Mouse thymocytes in culture were stimulated with IL-1β in the presence of phytohemagglutinin (PHA) and increasing concentrations of triptolide (control) and triptolide derivatives. The cells were cultured for 72 hours, and during the last 18 hours, incubated with tritiated thymidine. DNA synthesis was assessed by measuring incorporation of radiolabeled thymidine. The results expressed in terms of IC50 (concentration effective to cause 50% suppression of proliferation) are shown in Table 1.
C3H/HeN mouse thymocytes were prepared and the action of IL-1 together with PHA, which stimulate proliferation of thymocyte, was measured using standard techniques (O'Gara, 1990; Mishell, 1980). Three- to six-week old C3H/HeN male mice (Simonson Laboratory, Gilroy, Calif.) were sacrificed by CO2 inhalation. Thymi were removed, separated from adherent non-thymic tissue, homogenized in Hank's balanced salt solution (HBSS, Gibco) using a glass homogenizer, and centrifuged at 200×g for 10 minutes at 15° C. Following an additional wash in HBSS, the thymocytes were resuspended in RPMI 1640 medium containing 50 uM 2-mercaptoethanol, 2 mM glutamine, 1 mM sodium pyruvate, non-essential amino acids 100 U/ml penicillin, 100 μg/ml streptomycin, and 10% heat-inactivated fetal bovine serum.
Cells were cultured in round-bottom 96 well microtiter tissue culture plates, 6×10^5 cells per well, in a volume of 100 μl. Recombinant human IL-1β (R & D Systems #201-LB) together with Phytohemagglutinin P (PHA, Pharmacia) were added to the cells in volume of 25 μl per well to achieve a final concentration of 0.08 ng/ml and 10 μg/ml, respectively. Samples were dissolved in DMSO (10 mg/ml), then diluted in culture medium. Twenty five microliters of the test sample was added to each well to achieve the final compound concentrations for each experiment. Cells with PHA together with IL-1 served as controls. The total volume for each well was 150 μl.
Plates were incubated at 37° C. in a 5% CO2 incubator for 72 hours. Fifty microliters of culture medium containing 0.5 μCi (^3 H)-thymidine (Amersham, 49 Ci/mmol) was added to each well prior to the last 18 hours of incubation. Cells were then harvested and counted. The results were reported as counts per minute (cpm) per 6×10^5 cells.
The following formula was used to calculate the percent of suppression of IL-1 activity, and IC50 (concentration of sample yielding 50% suppression of proliferation) was used to indicate the suppressive activity of the sample.
% suppression of IL-1 activity=(1-sample cpm/(IL-1+PHA control

For `CC(C)C12OC1C1OC13C1(C)CCC4=C(COC4=O)C1CC1OC13C2OC(=O)CCC(=O)O` (stereo not shown) [YM-276, Triptolide Succinate Lysine Salt], in assay [1], the “MLR Assay IC50” value amounted to 0.063 µg/mL. In addition, the IC50 in assay [1] (read-out: MLR Assay IC50) was 104 nM; in assay [2] (read-out: IL-1 Assay IC50), 238 nM. Also, the “IL-1 Assay IC50” value in assay [2] was 0.144 µg/mL.

As usually defined, the IC50 is the concentration needed to halve the response being measured.
